# Assay results: patent US6107288A, “Antiviral nucleoside combination” (priority 1991, dated 2000)
# Several values for one entry are separate records, joined by “and”; a condition that tells them apart may be missing. Equal entries are not always repeated. Where two headings read alike, the source gives them in different places.
# Test system: HIV
# Assay type: cell-based
# Procedure: Combinations according to the invention were tested for anti-HIV activity in an HIV-infected MT4 cell assay as described in Averett, D. R., J. Virol. Methods, 23, 263-276 (1989). The cells were exposed to HIV for one hour prior to addition of antiviral component(s). Components were tested in serial 2.5-fold dilutions. After five days of incubation at 37° C., the cell number was determined. Inhibition of HIV-induced cytopathic effect was calculated, and synergism was determined by FIC plots as described by Elion, Singer, and Hitchings, J. Biol. Chem. 208, 477 (1954).
# The fractional inhibitor concentrations (FIC) of zidovudine and cis-1-(2-(hydroxymethyl)-1,3-oxathiolan-5-yl)-5-fluorocytosine were calculated according to the method of Elion et al., supra (Table 1).
SMILES,Fractional Inhibitor Concentration (FIC),"Fractional Inhibitor Concentration (FIC) (70% inhibition, combination of zidovudine 0.004 with Compound 1 2.5)","Fractional Inhibitor Concentration (FIC) (70% inhibition, combination of zidovudine 0.01 with Compound 1 2.0)","Fractional Inhibitor Concentration (FIC) (70% inhibition, combination of zidovudine 0.0256 with Compound 1 1.6)","Fractional Inhibitor Concentration (FIC) (70% inhibition, combination of zidovudine 0.06 with Compound 1 1.4)"
"Nc1nc(=O)n([C@@H]2CS[C@H](CO)O2)cc1F (relative stereo) [Compound 1, cis1-(2-(hydroxymethyl)-1,3-oxathiolan-5-yl)-5-fluorocytosine]",0.48 and 0.38 and 0.31 and 0.26,–,–,–,–
"Cc1cn([C@H]2C[C@H](N=[N+]=[N-])[C@@H](CO)O2)c(=O)[nH]c1=O [Zidovudine, 3'-azido-3'-deoxythymidine]",–,0.018,0.045,0.12,0.27
